Tests used:
Ca9-22 cells = assay: Cytotoxicity against Ca9-22 cells, MTT method, 48 h; format: cell-based, human; details: for CC50: Homo sapiens, Ca9-22, concentration required to kill 50% of the cells, 48 h, MTT, read-out: CC50 Ca9-22; for SI Ca9-22: average CC50 towards HGF, HPLF, HPC divided by CC50 against Ca9-22
Protocol: (§1) A literature procedure was followed when the compounds in series 3 and 4 were evaluated against three human oral squamous cell carcinoma cell lines Ca9-22 (RCB-1976), HSC-2 (RCB1945), HSC-4 (RCB1902) (purchased from RIKEN Cell Bank, Tukuba, Japan) and three human normal oral cells, gingival fibroblast (HGF), periodontal ligament fibroblast (HPLF) and pulp cells (HPC) (established according to the guideline of the intramural ethic committee, A0808) except the duration of incubation was increased from 24 h to 48 h. In brief, various concentrations of the compounds were added to the DMEM media, which was supplemented by 10% heat-inactivated fetal bovine serum. Incubation was undertaken at 37 °C. At the completion of the experiment, cell viability was determined by the MTT method.

HSC-2 cells = assay: Cytotoxicity against HSC-2 cells, MTT method, 48 h; format: cell-based, human; details: for CC50: Homo sapiens, HSC-2, concentration required to kill 50% of the cells, 48 h, MTT; for SI HSC-2: average CC50 towards HGF, HPLF, HPC divided by CC50 against HSC-2
Protocol: as §1

HSC-4 cells = assay: Cytotoxicity against HSC-4 cells, MTT method, 48 h; format: cell-based, human; details: for CC50: Homo sapiens, HSC-4, concentration required to kill 50% of the cells, 48 h, MTT, read-out: CC50 HSC-4; for SI HSC-4: average CC50 towards HGF, HPLF, HPC divided by CC50 against HSC-4
Protocol: as §1

[1] = tested on: Ca9-22, HSC-2 and HSC-4 cells; assay: Average over Ca9-22, HSC-2 and HSC-4 neoplastic cells; format: cell-based, human; details: for CC50: Homo sapiens, average of Ca9-22, HSC-2 and HSC-4, read-out: Average CC50; for Average SI: average of SI for Ca9-22, HSC-2 and HSC-4
Protocol: In order to assess whether the compounds in series 3 and 4 are more toxic to neoplasms than non-malignant cells, selective index (SI) figures were calculated. In the in vivo situation, a tumour is surrounded by a number of non-malignant cells.
In order to identify the most promising lead compounds in terms of both cytotoxic potencies and favourable SI values, potency–selectivity expression (PSE) values were computed. […] Outstanding results may be noted for four compounds that have PSE values in excess of 100,000 namely 3d, 4c–e. […] However, the relative SI/PSE distribution patterns between series 3 and 4 (from a to h) are nearly superimposable with each other (Figure 3). […] It has been reported that 3,5-bis(3-iodo-5-methoxy-4-propoxybenzylidene)-N-acetylpiperidin-4-one inhibited tubulin and destabilization of microtubules, while 3,5-bis(3,4,5-trimethoxybenzylidene)-N-benzoylpiperidin-4-one destabilizes the microtubules. Thus, it remained to investigate whether compound 4d acts as an inhibitor of the microtubule.
as §1

[2] = Cytotoxicity against non-malignant HGF cells, MTT method, 48 h; format: cell-based; details: human, gingival fibroblasts (HGF)
Protocol: as §1

[3] = Cytotoxicity against non-malignant HPLF cells, MTT method, 48 h; format: cell-based; details: human, periodontal ligament fibroblasts (HPLF)
Protocol: as §1

[4] = Cytotoxicity against non-malignant HPC cells, MTT method, 48 h; format: cell-based; details: human, pulp cells (HPC)
Protocol: as §1

[5] = Average over HGF, HPLF and HPC non-malignant cells; format: cell-based; details: human, HPLF and HPC non-malignant cells (average of the three)
Protocol: as §1

[6] = tested on: CEM T-lymphoblastic leukemia cells; assay: Cytotoxicity against CEM cells, MTT method, 24 h; format: cell-based; details: Homo sapiens, CCRF-CEM, concentration required to inhibit cell growth by 50%
Protocol: The method used for the evaluation of various compounds against human CEM cells has been reported previously. In brief, cells were grown in RPMI-1640 medium supplemented with 10% heat-inactivated fetal bovine serum. Different concentrations of compounds were added to the media, and after 24 h incubation, cytotoxicity was measured by the MTT method.

With C[N+]1(CCC(=O)N2C/C(=C\c3ccc([N+](=O)[O-])cc3)C(=O)/C(=C/c3ccc([N+](=O)[O-])cc3)C2)CCC(=NO)CC1 (stereo not shown) [Compound 4e, (3~{E},5~{E})-1-[3-(4-hydroximino-1-piperidyl)propanoyl]-3,5-bis[(4-nitrophenyl)methylene]piperidin-4-one methiodide] the CC50 (Ca9-22 cells) was 0.02 µM, the “SI Ca9-22” value (Ca9-22 cells) was 104 and the CC50 (HSC-2 cells) was 0.05 ± 0.01 µM. For the same compound, the “SI HSC-2” value (HSC-2 cells) was 41.4, the CC50 (HSC-4 cells) was 0.06 ± 0.01 µM and the “SI HSC-4” value (HSC-4 cells) was 34.5. For the same compound, the CC50 [1] was 0.04 µM, the “Average SI” value [1] was 60.0 and the CC50 at 48 h [2] was 1.15 ± 0.35 µM. The CC50 at 48 h [3] was 2.59 ± 0.27 µM, the CC50 at 48 h [4] was 2.46 ± 1.23 µM and the CC50 at 48 h [5] was 2.07 µM. It also gave an IC50 [6] of 0.87 ± 0.02 µM.
In the case of COc1ccc(/C=C2\CN(C(=O)CC[N+]3(C)CCC(=NO)CC3)C/C(=C\c3ccc(OC)cc3)C2=O)cc1 (stereo not shown) [Compound 4g, (3~{E},5~{E})-3,5-bis[(4-methoxyphenyl)methylene]-1-[3-(4-hydroximino-1-piperidyl)propanoyl]piperidin-4-one methiodide], the CC50 (Ca9-22 cells) is reported as 0.31 ± 0.17 µM, the “SI Ca9-22” value (Ca9-22 cells) is reported as 41.0 and the CC50 (HSC-2 cells) is reported as 0.68 ± 0.04 µM. For the same compound, the “SI HSC-2” value (HSC-2 cells) was 18.7, the CC50 (HSC-4 cells) was 0.66 ± 0.05 µM and the “SI HSC-4” value (HSC-4 cells) was 19.2. For the same compound, the CC50 [1] was 0.55 µM, the “Average SI” value [1] was 26.3 and the CC50 at 48 h [2] was 6.3 ± 0.27 µM. The CC50 at 48 h [3] was 16.2 ± 4.05 µM, the CC50 at 48 h [4] was 15.6 ± 3.16 µM and the CC50 at 48 h [5] was 12.7 µM. The IC50 [6] was 13 ± 0.95 µM.
In the case of O=C1/C(=C/c2ccc(O)cc2)CN(C(=O)CCN2CCC(=NO)CC2)C/C1=C\c1ccc(O)cc1 [Compound 3i, (3~{E},5~{E})-3,5-bis[(4-hydroxyphenyl)methylene]-1-[3-(4-hydroximino-1-piperidyl)propanoyl]piperidin-4-one], the CC50 (Ca9-22 cells) is reported as 16.5 ± 2.35 µM, the “SI Ca9-22” value (Ca9-22 cells) is reported as 5.10 and the CC50 (HSC-2 cells) is reported as 18 ± 2.06 µM. For the same compound, the “SI HSC-2” value (HSC-2 cells) was 4.68, the CC50 (HSC-4 cells) was 19.3 ± 1.61 µM and the “SI HSC-4” value (HSC-4 cells) was 4.36. The CC50 [1] was 17.9 µM, the “Average SI” value [1] was 4.71 and the CC50 at 48 h [2] was 64.9 ± 5.66 µM. It also gave a CC50 at 48 h [3] of 88.3 ± 4.56 µM, a CC50 at 48 h [4] of 99.3 ± 1.16 µM and a CC50 at 48 h [5] of 84.2 µM. For the same compound, the IC50 [6] was 11.1 ± 1.01 µM.
With Cc1ccc(/C=C2\CN(C(=O)CC[N+]3(C)CCC(=NO)CC3)C/C(=C\c3ccc(C)cc3)C2=O)cc1 (stereo not shown) [Compound 4f, (3~{E},5~{E})-3,5-bis[(4-methylphenyl)methylene]-1-[3-(4-hydroximino-1-piperidyl)propanoyl]piperidin-4-one methiodide] the CC50 (Ca9-22 cells) was 0.18 ± 0.02 µM, the “SI Ca9-22” value (Ca9-22 cells) was 53.1 and the CC50 (HSC-2 cells) was 0.46 ± 0.1 µM. For the same compound, the “SI HSC-2” value (HSC-2 cells) was 20.8, the CC50 (HSC-4 cells) was 0.4 ± 0.23 µM and the “SI HSC-4” value (HSC-4 cells) was 23.9. The CC50 [1] was 0.35 µM, the “Average SI” value [1] was 32.6 and the CC50 at 48 h [2] was 5.12 ± 0.24 µM. For the same compound, the CC50 at 48 h [3] was 8.37 ± 0.81 µM, the CC50 at 48 h [4] was 15.2 ± 1.9 µM and the CC50 at 48 h [5] was 9.56 µM. For the same compound, the IC50 [6] was 4.18 ± 0.65 µM.

— paper PMC8659243, “Design, Synthesis and Tumour-Selective Toxicity of Novel 1-[3-{3,5-Bis(benzylidene)-4-oxo-1-piperidino}-3-oxopropyl]-4-piperidone Oximes and Related Quaternary Ammonium Salts” (Molecules, 2021)
